The values that follow come from ChEMBL document CHEMBL3272269, “Synthesis and antileukemic activities of furanyl, pyranyl, and ribosyl derivatives of 4-(3,3-dimethyl-1-triazeno)imidazole-5-carboxamide and 3-(3,3-dimethyl-1-triazeno)pyrazole-4-carboxamide” (J Med Chem, 1979).

In data set [1] the test system is L1210. Put plainly: Antitumor activity against mouse L1210 cells allografted in mouse assessed as increase in survival at 200 mg/kg administered on day 1 followed by 3 injections with 4 day interval relative to control. Format: functional.
In data set [2] the test system is Mus musculus. Description: Toxicity in mouse L1210 cells allografted BDF1 mouse assessed as reduction in body weight at 100 mg/kg administered on day 1 followed by 3 injections with 4 day interval. Format: organism-based. On the set-up: dose 100 mg/kg. The following applies: in vivo, 96 h.
The test system of data set [3] is L1210. Put plainly: Antitumor activity against mouse L1210 cells allografted in mouse assessed as survival at 100 mg/kg administered on day 1 followed by 3 injections with 4 day interval. Format: functional, organism-based. Set-up: dose 100 mg/kg.
In data set [4] the test system is Mus musculus. Description: Toxicity in mouse L1210 cells allografted BDF1 mouse assessed as reduction in body weight at 400 mg/kg administered on day 1 followed by 3 injections with 4 day interval. It counts as organism-based. On the set-up: dose 400 mg/kg. Conditions: in vivo, 96 h.
The test system of data set [5] is L1210. Put plainly: Antitumor activity against mouse L1210 cells allografted in mouse assessed as survival at 400 mg/kg administered on day 1 followed by 3 injections with 4 day interval. It counts as functional, organism-based. On the set-up: dose 400 mg/kg.
The subject of data set [6] is L1210. Put plainly: Antitumor activity against mouse L1210 cells allografted in mouse assessed as increase in survival at 400 mg/kg administered on day 1 followed by 3 injections with 4 day interval relative to control. It counts as functional.
For data set [7], the system named is Mus musculus. Put plainly: Toxicity in mouse L1210 cells allografted BDF1 mouse assessed as reduction in body weight at 200 mg/kg administered on day 1 followed by 3 injections with 4 day interval. Format: organism-based. Set-up: dose 200 mg/kg. The following applies: in vivo, 96 h.
Data set [8] relates to L1210. Put plainly: Antitumor activity against mouse L1210 cells allografted in mouse assessed as increase in survival at 100 mg/kg administered on day 1 followed by 3 injections with 4 day interval relative to control. It counts as functional.
The test system of data set [9] is L1210. Put plainly: Antitumor activity against mouse L1210 cells allografted in mouse assessed as survival at 200 mg/kg administered on day 1 followed by 3 injections with 4 day interval. Format: functional, organism-based. Set-up: dose 200 mg/kg.
Data set [10] relates to Mus musculus. Put plainly: Toxicity in mouse L1210 cells allografted BDF1 mouse assessed as reduction in body weight at 109 mg/kg administered on day 1 followed by 9 injections with 1 day interval. It counts as organism-based. On the set-up: dose 109 mg/kg. Conditions: in vivo, 24 h.
In data set [11] the test system is Mus musculus. Description: Toxicity in mouse L1210 cells allografted BDF1 mouse assessed as reduction in body weight at 65 mg/kg administered on day 1 followed by 9 injections with 1 day interval. It counts as organism-based. The following applies: in vivo, 24 h. Set-up: dose 65 mg/kg.
In data set [12] the test system is Mus musculus. Description: Toxicity in mouse L1210 cells allografted BDF1 mouse assessed as reduction in body weight at 180 mg/kg administered on day 1 followed by 9 injections with 1 day interval. It counts as organism-based. Set-up: dose 180 mg/kg. Conditions: in vivo, 24 h.
In data set [13] the test system is L1210. Put plainly: Antitumor activity against mouse L1210 cells allografted in mouse assessed as survival at 50 mg/kg administered on day 1 followed by 5 injections with 1 day interval. It counts as functional, organism-based. On the set-up: dose 50 mg/kg.
Data set [14] concerns L1210. Description: Antitumor activity against mouse L1210 cells allografted in mouse assessed as increase in survival at 200 mg/kg administered on day 1 followed by 5 injections with 1 day interval relative to control. Format: functional.
Data set [15] relates to Mus musculus. Description: Toxicity in mouse L1210 cells allografted mouse assessed as reduction in body weight at 200 mg/kg administered on day 1 followed by 5 injections with 1 day interval. It counts as organism-based. On the set-up: dose 200 mg/kg. The following applies: in vivo, 24 h.
In data set [16] the test system is L1210. Put plainly: Antitumor activity against mouse L1210 cells allografted in mouse assessed as survival at 200 mg/kg administered on day 1 followed by 5 injections with 1 day interval. Format: functional, organism-based. Set-up: dose 200 mg/kg.
Data set [17] has as its system Mus musculus. Description: Toxicity in mouse L1210 cells allografted mouse assessed as reduction in body weight at 100 mg/kg administered on day 1 followed by 5 injections with 1 day interval. Format: organism-based. On the set-up: dose 100 mg/kg. Conditions: in vivo, 24 h.
Data set [18] concerns Mus musculus. Description: Toxicity in mouse L1210 cells allografted mouse assessed as reduction in body weight at 50 mg/kg administered on day 1 followed by 5 injections with 1 day interval. Conditions: in vivo, 24 h. Set-up: dose 50 mg/kg. It counts as organism-based.
Data set [19] deals with L1210. Put plainly: Antitumor activity against mouse L1210 cells allografted in mouse assessed as increase in survival at 100 mg/kg administered on day 1 followed by 5 injections with 1 day interval relative to control. It counts as functional.
Data set [20] deals with L1210. Description: Antitumor activity against mouse L1210 cells allografted in mouse assessed as increase in survival at 50 mg/kg administered on day 1 followed by 5 injections with 1 day interval relative to control. Format: functional.
For data set [21], the system named is L1210. Description: Antitumor activity against mouse L1210 cells allografted in mouse assessed as survival at 100 mg/kg administered on day 1 followed by 5 injections with 1 day interval. It counts as functional, organism-based. On the set-up: dose 100 mg/kg.
The subject of data set [22] is L1210. Put plainly: Antitumor activity against mouse L1210 cells allografted in mouse assessed as increase in survival at 65 mg/kg administered on day 1 followed by 9 injections with 1 day interval relative to control. It counts as functional.
Data set [23] deals with L1210. Put plainly: Antitumor activity against mouse L1210 cells allografted in mouse assessed as survival at 180 mg/kg administered on day 1 followed by 9 injections with 1 day interval. Format: functional, organism-based. On the set-up: dose 180 mg/kg.
The test system of data set [24] is L1210. Description: Antitumor activity against mouse L1210 cells allografted in mouse assessed as increase in survival at 180 mg/kg administered on day 1 followed by 9 injections with 1 day interval relative to control. Format: functional.
In data set [25] the test system is L1210. Put plainly: Antitumor activity against mouse L1210 cells allografted in mouse assessed as survival at 109 mg/kg administered on day 1 followed by 9 injections with 1 day interval. Format: functional, organism-based. On the set-up: dose 109 mg/kg.
In data set [26] the test system is L1210. Put plainly: Antitumor activity against mouse L1210 cells allografted in mouse assessed as increase in survival at 109 mg/kg administered on day 1 followed by 9 injections with 1 day interval relative to control. It counts as functional.
Data set [27] has as its system L1210. Description: Antitumor activity against mouse L1210 cells allografted in mouse assessed as survival at 65 mg/kg administered on day 1 followed by 9 injections with 1 day interval. It counts as functional, organism-based. Set-up: dose 65 mg/kg.
Data set [28] has as its system L1210. Put plainly: Antitumor activity against mouse L1210 cells allografted in mouse assessed as survival at 200 mg/kg administered on day 1 followed by 9 injections with 1 day interval. It counts as functional, organism-based. Set-up: dose 200 mg/kg.
In data set [29] the test system is L1210. Put plainly: Antitumor activity against mouse L1210 cells allografted in mouse assessed as increase in survival at 200 mg/kg administered on day 1 followed by 9 injections with 1 day interval relative to control. It counts as functional.
The subject of data set [30] is Mus musculus. Description: Toxicity in mouse L1210 cells allografted BDF1 mouse assessed as reduction in body weight at 200 mg/kg administered on day 1 followed by 9 injections with 1 day interval. It counts as organism-based. On the set-up: dose 200 mg/kg. Conditions: in vivo, 24 h.

The source made the active and inactive calls. The rule behind the calls is not given here.

As a reminder, the T/C is the result in the treated group divided by that in the control group, in per cent.

Turning to `CN(C)/N=N/c1nn(C2CCCCO2)cc1C(N)=O` (centres undefined), the values for the T/C in the data set on L1210 [1], in the data set on L1210 [6] and in the data set with L1210 [8] were 108%, 119% and 108%, respectively. Besides, the results for the Activity in the data set on Mus musculus [2], with Mus musculus [4] and with Mus musculus [7] were 0.9 g, 2.9 g and 1 g, respectively. The outcome in the data set on L1210 [3], in the data set with L1210 [5] and with L1210 [9] was Active.

For `CN(C)/N=N/c1[nH]ncc1C(N)=O`, the results for the Activity in the data set on Mus musculus [10], with Mus musculus [11] and in the data set with Mus musculus [12] were 3.7 g, 3.2 g and 4.9 g, respectively.

Take `CN(C)/N=N/c1nn(C2CCCO2)cc1C(N)=O` (centres undefined): the outcome in the data set with L1210 [13], in the data set on L1210 [16] and in the data set with L1210 [21] was Active. In addition, the results for the T/C in the data set with L1210 [14], with L1210 [19] and in the data set on L1210 [20] were 134%, 141% and 129%, respectively. The Activity in the data set on Mus musculus [15] was 3.7 g; with Mus musculus [17], 2.3 g; with Mus musculus [18], 1.8 g.

`CN(C)/N=N/c1n[nH]cc1C(N)=O`: the T/C in the data set on L1210 [22] came to 142%; with L1210 [24] it was 134%; with L1210 [26] it was 176%. Moreover, the outcome in the data set on L1210 [23], in the data set with L1210 [25] and in the data set with L1210 [27] was Active.

With `CC(=O)OC[C@H]1O[C@@H](n2cc(C(N)=O)c(/N=N/N(C)C)n2)[C@H](OC(C)=O)[C@@H]1OC(C)=O`, the T/C in the data set on L1210 [1] amounted to 105%; in the data set with L1210 [6], 89%; in the data set on L1210 [29], 107%; in the data set with L1210 [8] it was 100%. In addition, the Activity in the data set with Mus musculus [2] was found to be 0.1 g; in the data set with Mus musculus [4], 1.1 g; in the data set with Mus musculus [7] it was 1.8 g; with Mus musculus [30] it was 2.8 g. Moreover, the outcome in the data set on L1210 [28], with L1210 [3], with L1210 [5] and in the data set on L1210 [9] was Active.
